Assay results taken from US20200246316A1, “METHODS OF TREATING POST-SURGICAL PAIN WITH A THIAZOLINE ANTI-HYPERALGESIC AGENT” (CERSCI THERAPEUTICS, INC., priority 2019, published 2020).
Structures can show the parent of a compound that is named as a salt. Where two headings read alike, the source gives them in different places.

Legend:
[1] = tested on: peroxynitrite (PN); test: Chemical-based assays of peroxynitrite (PN) oxidation; type: biochemical
Description: (§1) In cell-based assays of PN-mediated cytotoxicity, Compound 1 is protective. […] Chemically, Compound 1 can also react stoichiometrically with peroxynitrite to form a para-nitro adduct. Without being bound by theory, by targeting and removing peroxynitrite and peroxide, Compound 1 can disrupt the ensuing cascades that lead to hypersensitivity (protein modification, ion channel hyperexcitation) thus providing a long duration event in terms of pain relief.

[2] = Log D distribution coefficient (PBS buffer/octanol); type: physicochemical
Protocol: Compound 1 has a Log D distribution coefficient at pH 7.2 of −0.07 (3 mL PBS Buffer: 1 mL Octanol) and −0.39 (2 mL PBS Buffer: 2 mL Octanol), where PBS is phosphate buffer solution.

[3] = Stability in plasma; type: in vitro ADME
Description: Upon administration, Compound 1 is stable in both plasma and hepatocytes from rat, dog and human.

[4] = tested on: STZ-induced mechanical allodynia; test: Streptozotocin (STZ) diabetic neuropathy model; type: in vivo, mice; details: FIG. 14
Protocol: Streptozotocin (STZ) destroys insulin-producing cells and generates a diabetic phenotype in mice. Animals were dosed with STZ on day −7. By day 0, animals are hyperglycemic and hyperalgesic (day 0 BL).

[5] = target: T1, OAT1 (Homo sapiens, UniProt Q4U2R8); test: Inhibition of uptake (SLC) transporters; type: in vitro ADME
T1 construct: expressed in transfected cells; host or cells: HEK293 cells

[6] = tested on: mouse incisional model; test: Mouse incisional model (mimicking the Brennan protocol); type: in vivo; details: 10 mg/kg IP QD, Days 1 and 3 after incision
Protocol: In a mouse incisional model (mimicking the Brennan protocol), animals were baselined for mechanical thresholds prior to incision and then given a daily dose of Compound 1 (10 mg/kg IP QD) or vehicle for 7 days.

[7] = tested on: PN-mediated cytotoxicity; test: Cell-based assays of PN-mediated cytotoxicity
Description: as §1

[8] = Cytotoxicity by lactate dehydrogenase (LDH) release; type: cell-based; details: human, Caco-2 cells; read-out: percent cytotoxicity (LDH release)
[9] = tested on: uninjured animals; test: Normal sensation in uninjured animals; type: in vivo
Description: In various embodiments, Compound 1 is efficacious in in vivo animal models of acute post-incisional hyperalgesia, both prophylactically and palliatively. […] In various embodiments, less than about 1%, 0.8%, 0.6%, 0.4%, 0.2%, 0.1%, 0.08%, 0.06%, 0.04%, 0.02%, or 0.01% of Compound 1 in blood plasma penetrates the BBB.

[10] = Dog single oral dose MTD study; type: in vivo; details: for concentration at 0.5 h / concentration at 1 h / concentration at 2 h: dog, plasma, N = 2, read-out: Average Compound 1 Concentration in dog plasma
Protocol: The objective of a third single dose study in dogs was to determine the maximum tolerated dose (MTD) of Compound 1 following a single oral (gavage) dose in male and female dogs. Using a pyramiding dose schedule, dose levels of 250, 350 and 500 mg/kg were administered to 2 dogs/sex (after a washout period of at least three days, the same animals were dosed with the next dose level). The dose volume was 10 mL/kg body weight. The vehicle was 0.5% aqueous HPMC.

[11] = target: T2, OAT3 (Homo sapiens, UniProt Q8TCC7); test: Inhibition of uptake (SLC) transporters; type: in vitro ADME
T2 construct: expressed in transfected cells; host or cells: HEK293 cells

[12] = target: T3, OATP1B1 (Homo sapiens, UniProt Q9Y6L6); test: Inhibition of uptake (SLC) transporters; type: in vitro ADME
T3 construct: expressed in transfected cells; host or cells: HEK293 cells

[13] = Dog pharmacokinetics after single PO (10 mg/kg) and IV (3 mg/kg) dose; type: in vivo; details: for bioavailability: 10 mg/kg PO vs 3 mg/kg IV
Protocol: The objective of the first single dose non-GLP study in dogs was to determine the pharmacokinetics and bioavailability of Compound 1 after a single oral (gavage) or single intravenous (IV) dose in dogs. The test article formulation was administered to three male dogs orally via gavage at a dose level of 10 mg/kg (dosing volume of 2 mL/kg body weight). Following a wash-out period of a minimum of three days, the same three dogs were administered the test article formulation via an IV bolus push over approximately 1-2 minutes at a dose level of 3 mg/kg (dosing volume of 0.5 mL/kg). The vehicle for oral gavage dosing was 0.5% HPMC; the vehicle for IV injection was sterile phosphate buffered saline (PBS; pH 7.4). […] Animals were returned to quarantine after the last blood collection.
After IV administration at 3 mg/kg, the test article was quantifiable up to the 4-hour time point for all animals and tmax was about 5 minutes. Since the test article was not quantifiable at the 6-hour and subsequent time points for IV administration, […] and bioavailability could not be calculated.

[14] = target: T4, MATE (Homo sapiens, UniProt Q86VL8); test: Inhibition of uptake (SLC) transporters; type: in vitro ADME; details: MATE2-K; HEK293 cells, probe [14C]-metformin (10 μM), pH 8.5, 0.3-600 μM tested
T4 construct: expressed in transfected cells; host or cells: HEK293 cells

[15] = target: T5, MATE (Homo sapiens, UniProt Q96FL8); test: Inhibition of uptake (SLC) transporters; type: in vitro ADME; details: MATE1; HEK293 cells, probe [14C]-metformin (10 μM), pH 8.5, 0.3-600 μM tested
T5 construct: expressed in transfected cells; host or cells: HEK293 cells

[16] = Protein binding across species; type: in vitro ADME
[17] = female, 250 mg/kg PO (Dose 1; Day 1), F
[18] = female, 350 mg/kg PO (Dose 3; Day 9), F
[19] = female, 500 mg/kg PO (Dose 2; Day 4), F
[20] = male, 250 mg/kg PO (Dose 1; Day 1), M
[21] = male, 350 mg/kg PO (Dose 3; Day 9), M
[22] = male, 500 mg/kg PO (Dose 2; Day 4), M

T2 sequence (Q8TCC7 whole entry): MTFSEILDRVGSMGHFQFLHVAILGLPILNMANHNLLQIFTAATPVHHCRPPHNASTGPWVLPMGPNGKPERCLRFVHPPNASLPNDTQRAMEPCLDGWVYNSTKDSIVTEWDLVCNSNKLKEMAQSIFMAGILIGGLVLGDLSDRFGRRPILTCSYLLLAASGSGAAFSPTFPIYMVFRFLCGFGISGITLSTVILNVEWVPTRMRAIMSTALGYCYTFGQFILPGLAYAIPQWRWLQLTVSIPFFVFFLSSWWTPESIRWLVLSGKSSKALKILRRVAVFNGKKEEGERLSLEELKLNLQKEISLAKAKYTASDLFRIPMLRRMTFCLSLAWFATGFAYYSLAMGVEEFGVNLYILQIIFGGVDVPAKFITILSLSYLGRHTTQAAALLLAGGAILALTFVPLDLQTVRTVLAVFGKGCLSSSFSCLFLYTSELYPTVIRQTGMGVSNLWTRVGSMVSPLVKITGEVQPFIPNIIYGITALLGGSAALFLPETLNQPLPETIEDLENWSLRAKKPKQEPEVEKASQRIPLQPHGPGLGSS
T1 sequence (Q4U2R8 whole entry): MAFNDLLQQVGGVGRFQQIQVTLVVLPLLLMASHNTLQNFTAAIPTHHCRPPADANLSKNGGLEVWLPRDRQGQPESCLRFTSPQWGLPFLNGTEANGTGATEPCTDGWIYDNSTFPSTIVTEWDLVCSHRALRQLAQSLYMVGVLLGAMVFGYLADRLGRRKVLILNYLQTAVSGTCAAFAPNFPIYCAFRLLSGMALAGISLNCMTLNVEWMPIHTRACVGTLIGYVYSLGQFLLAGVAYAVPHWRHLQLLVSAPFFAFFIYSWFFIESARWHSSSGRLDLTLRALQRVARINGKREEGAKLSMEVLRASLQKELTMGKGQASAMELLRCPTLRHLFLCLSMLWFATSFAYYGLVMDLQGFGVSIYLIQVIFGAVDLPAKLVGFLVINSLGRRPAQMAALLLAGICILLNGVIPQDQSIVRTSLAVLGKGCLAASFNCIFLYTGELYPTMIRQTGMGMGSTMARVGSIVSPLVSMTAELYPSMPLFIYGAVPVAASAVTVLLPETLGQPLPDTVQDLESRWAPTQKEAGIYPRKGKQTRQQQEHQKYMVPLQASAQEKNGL
T3 sequence (Q9Y6L6 whole entry): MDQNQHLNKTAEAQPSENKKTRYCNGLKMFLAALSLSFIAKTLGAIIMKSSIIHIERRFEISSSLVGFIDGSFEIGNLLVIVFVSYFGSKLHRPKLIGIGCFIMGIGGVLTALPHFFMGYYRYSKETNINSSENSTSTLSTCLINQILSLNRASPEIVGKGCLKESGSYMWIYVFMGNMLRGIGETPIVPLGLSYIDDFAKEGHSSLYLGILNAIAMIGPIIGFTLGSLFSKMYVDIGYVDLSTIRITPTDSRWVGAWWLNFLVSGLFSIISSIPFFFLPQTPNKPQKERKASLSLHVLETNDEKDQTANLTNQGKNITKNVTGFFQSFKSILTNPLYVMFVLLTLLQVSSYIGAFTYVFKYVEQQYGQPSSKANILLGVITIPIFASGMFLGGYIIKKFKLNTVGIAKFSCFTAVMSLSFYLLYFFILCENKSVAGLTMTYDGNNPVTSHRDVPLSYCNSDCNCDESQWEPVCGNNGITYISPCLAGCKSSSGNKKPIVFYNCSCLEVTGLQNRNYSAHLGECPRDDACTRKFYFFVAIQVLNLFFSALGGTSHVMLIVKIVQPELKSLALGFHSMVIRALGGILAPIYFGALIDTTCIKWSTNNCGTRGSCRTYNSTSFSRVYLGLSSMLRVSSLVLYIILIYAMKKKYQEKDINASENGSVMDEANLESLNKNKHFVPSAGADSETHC
T5 sequence (Q96FL8 whole entry): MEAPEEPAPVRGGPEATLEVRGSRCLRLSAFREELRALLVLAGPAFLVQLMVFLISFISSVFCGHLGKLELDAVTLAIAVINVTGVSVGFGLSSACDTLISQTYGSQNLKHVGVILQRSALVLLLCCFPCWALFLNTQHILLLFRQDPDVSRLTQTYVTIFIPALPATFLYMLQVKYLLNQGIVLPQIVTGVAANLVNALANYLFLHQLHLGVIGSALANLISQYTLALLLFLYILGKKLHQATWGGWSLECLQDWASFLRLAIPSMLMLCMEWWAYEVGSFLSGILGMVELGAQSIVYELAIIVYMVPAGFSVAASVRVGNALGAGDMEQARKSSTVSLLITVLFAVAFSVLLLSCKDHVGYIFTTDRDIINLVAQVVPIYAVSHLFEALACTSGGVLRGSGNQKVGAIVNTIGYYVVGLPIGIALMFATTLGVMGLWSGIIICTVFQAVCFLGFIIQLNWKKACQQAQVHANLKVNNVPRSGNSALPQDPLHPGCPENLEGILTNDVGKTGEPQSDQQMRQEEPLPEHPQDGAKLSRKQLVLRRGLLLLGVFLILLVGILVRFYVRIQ
T4 sequence (Q86VL8 1-566 isoform Q86VL8-3): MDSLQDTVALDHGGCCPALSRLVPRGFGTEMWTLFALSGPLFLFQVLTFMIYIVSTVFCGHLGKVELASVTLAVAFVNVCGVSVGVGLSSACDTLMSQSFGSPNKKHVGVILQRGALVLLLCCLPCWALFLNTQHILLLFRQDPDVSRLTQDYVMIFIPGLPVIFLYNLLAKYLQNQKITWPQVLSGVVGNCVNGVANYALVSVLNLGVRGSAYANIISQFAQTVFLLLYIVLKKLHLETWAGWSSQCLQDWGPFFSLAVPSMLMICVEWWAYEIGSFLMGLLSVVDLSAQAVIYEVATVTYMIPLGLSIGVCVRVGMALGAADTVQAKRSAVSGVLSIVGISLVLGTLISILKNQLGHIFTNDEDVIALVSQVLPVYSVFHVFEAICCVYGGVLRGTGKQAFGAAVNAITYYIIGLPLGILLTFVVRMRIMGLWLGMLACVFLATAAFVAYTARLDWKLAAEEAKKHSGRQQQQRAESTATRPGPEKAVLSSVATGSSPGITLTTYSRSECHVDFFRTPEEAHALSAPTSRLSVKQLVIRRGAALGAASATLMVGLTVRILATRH

CC1(C)SC(Nc2ccccc2O)=N[C@@H]1C(=O)O [Compound 1, (R)-2-(2-hydroxyphenylamino)-5,5-dimethyl-4,5-dihydrothiazole-4-carboxylic acid mono-hydrochloride]
PN-mediated oxidation of small-molecule organic substrates such as luminol [1]: inhibits PN-mediated oxidation
logD ([2]; pH 7.2, pH 7.2, 2 mL PBS Buffer: 2 mL Octanol): -0.39
logD ([2]; pH 7.2, pH 7.2, 3 mL PBS Buffer: 1 mL Octanol): -0.07
stability in plasma ([3]; dog): stable
stability in plasma ([3]; human): stable
stability in plasma ([3]; rat): stable
STZ-induced mechanical allodynia [4]: blocks STZ-induced mechanical allodynia
IC50 ([5]; HEK293 cells, probe [3H]-p-aminohippurate (1 μM), 0.3-600 μM tested): > 600 µM
transporter inhibition ([5]; OAT1): does not inhibit
hyperalgesia [6]: not hyperalgesic
protection from PN-mediated cytotoxicity [7]: protective
cytotoxicity [8]: < 25%
effect on normal sensation [9]: does not alter normal sensation
concentration at 0.5 h [10, 17]: 28 µg/mL
concentration at 1 h [10, 17]: 54 µg/mL
concentration at 2 h [10, 17]: 46 µg/mL
concentration at 0.5 h [10, 18]: 67 µg/mL
concentration at 1 h [10, 18]: 154 µg/mL
concentration at 2 h [10, 18]: 119 µg/mL
concentration at 0.5 h [10, 19]: 87 µg/mL
concentration at 1 h [10, 19]: 136 µg/mL
concentration at 2 h [10, 19]: 124 µg/mL
concentration at 0.5 h [10, 20]: 71 µg/mL
concentration at 1 h [10, 20]: 110 µg/mL
concentration at 2 h [10, 20]: 91 µg/mL
concentration at 0.5 h [10, 21]: 134 µg/mL
concentration at 1 h [10, 21]: 220 µg/mL
concentration at 2 h [10, 21]: 153 µg/mL
concentration at 0.5 h [10, 22]: 111 µg/mL
concentration at 1 h [10, 22]: 191 µg/mL
concentration at 2 h [10, 22]: 193 µg/mL
emesis incidence ([10]; single dose 500 mg/kg): three of the four dosed animals
tolerability ([10]; single oral (gavage) dose 500 mg/kg): not tolerated
IC50 ([11]; HEK293 cells, probe [3H]-estrone-3-sulfate (0.05 μM), 0.3-600 μM tested): 174 µM
transporter inhibition ([11]; OAT3): weakly inhibits
IC50 ([12]; HEK293 cells, probe [3H]-estradiol-17β-glucuronide (0.05 μM), 0.3-600 μM tested): > 600 µM
transporter inhibition ([12]; OATP1B1): does not inhibit
median t1-2 ([13]; 10 mg/kg PO): 1.4 h
epimerization (chiral column) ([13]; dog plasma): did not provide any evidence of epimerization
bioavailability ([13]; male, dog, plasma, oral, 10 mg/kg, read-out: mean oral bioavailability): 72%
Tmax ([13]; male, dog, plasma, 3 mg/kg IV): ~5 min
Cmax ([13]; male, dog, plasma, 10 mg/kg PO): 12 µg/mL
Tmax ([13]; male, dog, plasma, 10 mg/kg PO): ~60 min
bioavailability ([13]; male, dog, plasma, read-out: oral bioavailability range): 56 to 91%
IC50 [14]: > 600 µM
IC50 [15]: > 600 µM
protein binding [16]: moderately protein-bound
